Counter-ions that a name gives are not always drawn.
Legend:
human mPGES-1 = human mPGES-1 (Homo sapiens (Human), UniProt O14684); assay: mPGES-1 inhibiting activity (microsome fractions, PGE2 by HTRF); assay type: biochemical; conditions: microsomes from CHO-K1 cells transfected with human mPGES-1; PGH2 1 μM, 4° C., 60 seconds; read-out: mPGES-1 Inhibition IC50
Outline: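 PGE2 formation read by HTRF after 60 s at 4 °C with 1 μM PGH2 substrate, following 20 min compound preincubation (1% DMSO) with human mPGES-1 microsomes from transfected CHO-K1 cells. Buffer: potassium phosphate, reduced glutathione, pH 7.4; IC50 from activity relative to enzyme-free blank.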

A549 cells = assay: Inhibition of PGE2 production in A549 cell (IL-1β stimulated); assay type: cell-based, human; conditions: IL-1β 5 ng/well, PGE2 in culture medium
Procedure: Human A549 cells were seeded onto a 96-well plate at 2×10^4 cells/100 μL per well and allowed to incubate overnight. After removing the culture medium and washing with phosphate buffered saline, the culture medium was replaced by RPMI culture medium with 3% FBS containing a DMSO solution containing test compound or DMSO alone (such that DMSO final concentration would be […] in each). After incubation for 60 minutes, IL-1β (5 ng/well) was added and incubated at 37° C. for 24 hours. Then, PGE2 in the culture medium was measured using HTRF kit (Cisbio International, catalogue #62P2APEC), and PGF2α in the culture medium was measured using EIA kit (Cayman Chemical Company, catalogue #516011). The solution free of test compound was used as positive control, and the solution free of test compound and IL-1β was used as negative control. 100% activity was defined as PGE2 and PGF2α production in the positive control minus PGE2 and PGF2α production in the negative control. IC50 value was calculated by standard method.

Chain of human mPGES-1 (O14684 whole entry): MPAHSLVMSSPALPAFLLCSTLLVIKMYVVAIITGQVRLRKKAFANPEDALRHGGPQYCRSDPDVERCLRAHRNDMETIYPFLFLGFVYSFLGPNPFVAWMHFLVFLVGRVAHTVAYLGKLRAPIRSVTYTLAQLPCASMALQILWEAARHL

| Structure (SMILES) | IC50 (human mPGES-1) [nM] | IC50 (A549 cells; Homo sapiens, A549, 24 h) [nM] | IC50 (A549 cells; 24 hours, hydrochloride) [nM] |
| --- | --- | --- | --- |
| COCc1nc2c(C(=O)Nc3cccc(Cl)c3C)cc(NC(=O)c3c(F)cccc3Cl)cc2[nH]1 [Example 92, 6-{[(2-Chloro-6-fluorophenyl)carbonyl]amino}-N-(3-chloro-2-methylphenyl)-2-(methoxymethyl)-1H-benzimidazole-4-carboxamide hydrochloride] | 6.7 | 32.2 | – |
| O=C(Nc1cc2c(c(C(=O)NC3CCCCC3)c1)OCC2)c1ccccc1C(F)(F)F [Example 7, N-Cyclohexyl-5-({[2-(trifluoromethyl)phenyl]carbonyl}amino)-2,3-dihydro-1-benzofuran-7-carboxamide] | 105 | 342 | – |
| Cc1ccc(NC(=O)c2cc(NC(=O)c3ccccc3C(F)(F)F)cc3[nH]c(C(C)(C)C)nc23)cc1Cl [Example 86, 2-tert-Butyl-N-(3-chloro-4-methylphenyl)-6-({[2-(trifluoromethyl)phenyl]carbonyl}amino)-1H-benzimidazole-4-carboxamide hydrochloride] | 1 | 5.1 | – |
| Cc1nc2c(C(=O)NC3CCCC3)cc(NC(=O)c3ccccc3C(F)(F)F)cc2[nH]1 [Example 15, N-Cyclopentyl-2-methyl-6-({[2-(trifluoromethyl)phenyl]carbonyl}amino)-1H-benzimidazole-4-carboxamide] | 37.4 | 465 | – |
| COCCc1nc2c(C(=O)Nc3cccc(Cl)c3C)cc(NC(=O)c3ccccc3C(F)(F)F)cc2[nH]1 [Example 81, N-(3-Chloro-2-methylphenyl)-2-(2-methoxyethyl)-6-({[2-(trifluoromethyl)phenyl]carbonyl}amino)-1H-benzimidazole-4-carboxamide hydrochloride] | 5 | 404 | – |
| Cc1c(Cl)cccc1NC(=O)c1cc(NC(=O)c2ccccc2C(F)(F)F)cc2[nH]c(N3CCN(C)CC3)nc12 [Example 143, N-(3-Chloro-2-methylphenyl)-2-(4-methylpiperazin-1-yl)-6-({[2-(trifluoromethyl)phenyl]carbonyl}amino)-1H-benzimidazole-4-carboxamide dihydrochloride] | 5.3 | 87.5 | – |
| COCc1nc2c(C(=O)Nc3cccc(Cl)c3C)cc(NC(=O)c3cc(C)ccc3Cl)cc2[nH]1 [Example 108, N-(3-Chloro-2-methylphenyl)-6-{[(2-chloro-5-methylphenyl)carbonyl]amino}-2-(methoxymethyl)-1H-benzimidazole-4-carboxamide hydrochloride] | 11.5 | 87.9 | – |
| Cc1c(Cl)cccc1NC(=O)c1cc(NC(=O)c2ccccc2C(F)(F)F)cc2[nH]c([C@@H]3CCC(=O)N3)nc12 [Example 130, N-(3-Chloro-2-methylphenyl)-2-[(2S)-5-oxopyrrolidin-2-yl]-6-({[2-(trifluoromethyl)phenyl]carbonyl}amino)-1H-benzimidazole-4-carboxamide hydrochloride] | 3.9 | > 10000 | – |
| COCc1nc2c(C(=O)Nc3cccc(Cl)c3C)cc(NC(=O)c3ccccc3C(F)(F)F)cc2n1C [Example 90, N-(3-Chloro-2-methylphenyl)-2-(methoxymethyl)-1-methyl-6-({[2-(trifluoromethyl)phenyl]carbonyl}amino)-1H-benzimidazole-4-carboxamide] | 118 | 348 | – |
| CSCCNc1nc2c(C(=O)Nc3cccc(Cl)c3C)cc(NC(=O)c3ccccc3C(F)(F)F)cc2[nH]1 [Example 178, N-(3-Chloro-2-methylphenyl)-2-{[2-(methylsulfanyl)ethyl]amino}-6-({[2-(trifluoromethyl)phenyl]carbonyl}amino)-1H-benzimidazole-4-carboxamide hydrochloride] | 1.2 | 12.8 | – |
| COCc1nc2c(C(=O)NCc3ncccc3C(F)(F)F)cc(NC(=O)c3ccccc3C(F)(F)F)cc2[nH]1 [Example 42, 2-(Methoxymethyl)-6-({[2-(trifluoromethyl)phenyl]carbonyl}amino)-N-{[3-(trifluoromethyl)pyridin-2-yl]methyl}-1H-benzimidazole-4-carboxamide dihydrochloride] | 28.5 | 1860 | – |
| COCc1nc2c(C(=O)Nc3cccc4cccnc34)cc(NC(=O)c3ccccc3C(F)(F)F)cc2[nH]1 [Example 230, 2-(Methoxymethyl)-N-(quinolin-8-yl)-6-({[2-(trifluoromethyl)phenyl]carbonyl}amino)-1H-benzimidazole-4-carboxamide hydrochloride] | 1.9 | 100 | – |
| COCc1nc2c(C(=O)Nc3cccc(Cl)c3C)cc(NC(=O)c3cc(CCC4CC4)ccc3Cl)cc2[nH]1 [Example 122, 6-({[2-Chloro-5-(2-cyclopropylethyl)phenyl]carbonyl}amino)-N-(3-chloro-2-methylphenyl)-2-(methoxymethyl)-1H-benzimidazole-4-carboxamide] | 9.7 | > 1000 | – |
| COCCOCc1nc2c(C(=O)Nc3cccc(Cl)c3C)cc(NC(=O)c3ccccc3C(F)(F)F)cc2[nH]1 [Example 74, N-(3-Chloro-2-methylphenyl)-2-[(2-methoxyethoxy)methyl]-6-({[2-(trifluoromethyl)phenyl]carbonyl}amino)-1H-benzimidazole-4-carboxamide hydrochloride] | 71.3 | 10.4 | – |
| Cc1c(Cl)cccc1NC(=O)c1cc(NC(=O)c2c(F)cccc2Cl)cc2[nH]c([C@H]3CCCO3)nc12 [Example 127, 6-{[(2-Chloro-6-fluorophenyl)carbonyl]amino}-N-(3-chloro-2-methylphenyl)-2-[(2R)-tetrahydrofuran-2-yl]-1H-benzimidazole-4-carboxamide hydrochloride] | 6.3 | 144 | – |
| Cc1c(Cl)cccc1NC(=O)c1cc(NC(=O)c2ccccc2C(F)(F)F)cc2[nH]c(NCCO)nc12 [Example 137, N-(3-Chloro-2-methylphenyl)-2-[(2-hydroxyethyl)amino]-6-({[2-(trifluoromethyl)phenyl]carbonyl}amino)-1H-benzimidazole-4-carboxamide hydrochloride] | 3.3 | 1110 | – |
| Cc1c(Cl)cccc1NC(=O)c1cc(NC(=O)c2c(F)cccc2Cl)cc2[nH]c(NC[C@@H]3CCCO3)nc12 [Example 198, 6-{[(2-Chloro-6-fluorophenyl)-carbonyl]amino}-N-(3-chloro-2-methylphenyl)-2-{[(2S)-tetrahydrofuran-2-ylmethyl]amino}-1H-benzimidazole-4-carboxamide hydrochloride] | 6 | 34.1 | – |
| Cc1c(Cl)cccc1NC(=O)c1cc(NC(=O)c2ccccc2C(F)(F)F)cc2[nH]c([C@@H]3CCCN3C)nc12 [Example 72, N-(3-Chloro-2-methylphenyl)-2-[(2S)-1-methylpyrrolidin-2-yl]-6-({[2-(trifluoromethyl)phenyl]carbonyl}amino)-1H-benzimidazole-4-carboxamide] | 9.8 | 60 | – |
| O=C(Nc1cc(C(=O)NCc2ccccc2C(F)(F)F)c2nc(C3CCCO3)[nH]c2c1)c1ccccc1C(F)(F)F (stereo in doubt) [Example 67, 2-[(2S)-Tetrahydrofuran-2-yl]-N-[2-(trifluoromethyl)benzyl]-6-({[2-(trifluoromethyl)phenyl]carbonyl}amino)-1H-benzimidazole-4-carboxamide hydrochloride] | 11 | – | 56.4 |
| CCc1nc2c(C(=O)NC3CCCCC3)cc(NC(=O)c3ccccc3C(F)(F)F)cc2[nH]1 [Example 18, N-Cyclohexyl-2-ethyl-6-({[2-(trifluoromethyl)phenyl]carbonyl}amino)-1H-benzimidazole-4-carboxamide] | 21.6 | 110 | – |
| CCCC(C)(C)c1nc2c(C(=O)Nc3cccc(Cl)c3C)cc(NC(=O)c3ccccc3C(F)(F)F)cc2[nH]1 [Example 84, N-(3-Chloro-2-methylphenyl)-2-(2-methylpentan-2-yl)-6-({[2-(trifluoromethyl)phenyl]carbonyl}amino)-1H-benzimidazole-4-carboxamide hydrochloride] | 0.8 | 6.5 | – |
| Cc1c(Cl)cccc1NC(=O)c1cc(NC(=O)c2ccccc2C(F)(F)F)cc2[nH]c(CC(C)(C)C)nc12 [Example 82, N-(3-Chloro-2-methylphenyl)-2-(2,2-dimethylpropyl)-6-({[2-(trifluoromethyl)phenyl]carbonyl}amino)-1H-benzimidazole-4-carboxamide hydrochloride] | 0.4 | 6.3 | – |
| CCc1nc2c(C(=O)Nc3cccc(Cl)c3C)cc(NC(=O)c3ccccc3C(F)(F)F)cc2[nH]1 [Example 17, N-(3-Chloro-2-methylphenyl)-2-ethyl-6-({[2-(trifluoromethyl)phenyl]carbonyl}amino)-1H-benzimidazole-4-carboxamide] | 9.8 | 21.6 | – |
| CC(=O)N1CCC[C@H]1c1nc2c(C(=O)Nc3cccc(Cl)c3C)cc(NC(=O)c3ccccc3C(F)(F)F)cc2[nH]1 [Example 73, 2-[(2S)-1-Acetylpyrrolidin-2-yl]-N-(3-chloro-2-methylphenyl)-6-({[2-(trifluoromethyl)phenyl]carbonyl}amino)-1H-benzimidazole-4-carboxamide] | 18.6 | 76.4 | – |

Source: patent US9216968B2, “Heterocyclic derivative and pharmaceutical drug” (NIPPON SHINYAKU CO., LTD., priority 2011, dated 2015)
